Laboratory results taken from patent US8859555B2, “Lysine Specific Demethylase-1 inhibitors and their use” (Oryzon Genomics S.A., priority 2009, dated 2014).
Structures can show the parent of a compound that is named as a salt. Where two headings read alike, the source gives them in different places.

Legend:
[1] = target: T1, Human recombinant LSD1 protein (Homo sapiens, UniProt O60341); test: LSD1 inhibition, Amplex Red peroxide/peroxidase-coupled demethylase assay; format: biochemical; details: for Ki: Ki range class
T1 construct: purchased BPS Bioscience Inc
Description: Human recombinant LSD1 protein was purchased from BPS Bioscience Inc. In order to monitor LSD1 enzymatic activity and/or its inhibition rate by our inhibitor(s) of interest, di-methylated H3-K4 peptide (Millipore) was chosen as a substrate. The demethylase activity was estimated, under aerobic conditions, by measuring the release of H2O2 produced during the catalytic process, using the Amplex® Red peroxide/peroxidase-coupled assay kit (Invitrogen).
Within the experiment, each concentration of inhibitor was tested in triplicate. […] The enzymatic reactions were set up in a 50 mM sodium phosphate, pH 7.4 buffer. At the end of the incubation, Amplex® Red reagent and horseradish peroxidase (HPR) solution were added to the reaction according to the recommendations provided by the supplier (Invitrogen), and left to incubate for 30 extra minutes at room temperature in the dark. A 1 μM H2O2 solution was used as a control of the kit efficiency. The conversion of the Amplex® Red reagent to resorufin due to the presence of H2O2 in the assay, was monitored by fluorescence (excitation at 540 nm, emission at 590 nm) using a microplate reader (Infinite 200, Tecan). Arbitrary units were used to measure level of H2O2 produced in the absence and/or in the presence of inhibitor.
The maximum demethylase activity of LSD1 was obtained in the absence of inhibitor and corrected for background fluorescence in the absence of LSD1. The Ki of each inhibitor was estimated at half of the maximum activity.

[2] = target: T2, Human recombinant monoamine oxidase MAO-A (Homo sapiens, UniProt P21397); test: MAO-A kynuramine fluorescence inhibition assay; format: biochemical
T2 construct: purchased Sigma Aldrich
T2 sequence (P21397 1-527): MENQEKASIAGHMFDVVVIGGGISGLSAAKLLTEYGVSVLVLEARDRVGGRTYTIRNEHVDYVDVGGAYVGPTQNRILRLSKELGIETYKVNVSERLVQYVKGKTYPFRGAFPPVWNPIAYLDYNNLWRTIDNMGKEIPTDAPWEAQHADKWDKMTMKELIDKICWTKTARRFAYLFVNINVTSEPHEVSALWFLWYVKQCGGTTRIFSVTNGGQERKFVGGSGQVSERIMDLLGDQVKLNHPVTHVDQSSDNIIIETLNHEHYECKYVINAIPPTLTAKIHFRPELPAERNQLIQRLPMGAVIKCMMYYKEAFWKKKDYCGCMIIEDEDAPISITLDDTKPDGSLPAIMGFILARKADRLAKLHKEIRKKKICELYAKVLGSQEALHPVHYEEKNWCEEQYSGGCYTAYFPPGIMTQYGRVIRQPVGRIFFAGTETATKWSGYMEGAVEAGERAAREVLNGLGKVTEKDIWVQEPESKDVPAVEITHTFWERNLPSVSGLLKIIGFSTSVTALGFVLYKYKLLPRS
Description: (§1) Human recombinant monoamine oxidase proteins MAO-A and MAO-B were purchased from Sigma Aldrich. […] In order to monitor MAO enzymatic activities and/or their inhibition rate by inhibitor(s) of interest, a fluorescent-based (inhibitor)-screening assay was set up. 3-(2-Aminophenyl)-3-oxopropanamine (kynuramine dihydrobromide, Sigma Aldrich), a non fluorescent compound was chosen as a substrate. Kynuramine is a non-specific substrate for both MAOs activities. While undergoing oxidative deamination by MAO activities, kynuramine is converted into 4-hydroxyquinoline (4-HQ), a resulting fluorescent product.
(§2) The monoamine oxidase activity was estimated by measuring the conversion of kynuramine into 4-hydroxyquinoline. Assays were conducted in 96-well black plates with clear bottom (Corning) in a final volume of 100 μL. The assay buffer was 100 mM HEPES, pH 7.5. Each experiment was performed in triplicate within the same experiment.
(§3) Briefly, a fixed amount of MAO (0.25 μg for MAO-A and 0.5 μg for MAO-B) was incubated on ice for 15 minutes in the reaction buffer, in the absence and/or in the presence of various concentrations of inhibitor (e.g., from 0 to 50 μM, depending on the inhibitor strength).
(§4) After leaving the enzyme(s) interacting with the inhibitor, 60 to 90 μM of kynuramine was added to each reaction for MAO-B and MAO-A assay respectively, and the reaction was left for 1 hour at 37° C. in the dark. The oxidative deamination of the substrate was stopped by adding 50 μL (v/v) of NaOH 2N. The conversion of kynuramine to 4-hydroxyquinoline, was monitored by fluorescence (excitation at 320 nm, emission at 360 nm) using a microplate reader (Infinite 200, Tecan). Arbitrary units were used to measure levels of fluorescence produced in the absence and/or in the presence of inhibitor.
(§5) The Ki of each inhibitor was measure at Vmax/2.

[3] = target: T3, Human recombinant monoamine oxidase MAO-B (Homo sapiens, UniProt P27338); test: MAO-B kynuramine fluorescence inhibition assay; format: biochemical; details: Ki range class
T3 construct: purchased Sigma Aldrich
T3 sequence (P27338 1-520): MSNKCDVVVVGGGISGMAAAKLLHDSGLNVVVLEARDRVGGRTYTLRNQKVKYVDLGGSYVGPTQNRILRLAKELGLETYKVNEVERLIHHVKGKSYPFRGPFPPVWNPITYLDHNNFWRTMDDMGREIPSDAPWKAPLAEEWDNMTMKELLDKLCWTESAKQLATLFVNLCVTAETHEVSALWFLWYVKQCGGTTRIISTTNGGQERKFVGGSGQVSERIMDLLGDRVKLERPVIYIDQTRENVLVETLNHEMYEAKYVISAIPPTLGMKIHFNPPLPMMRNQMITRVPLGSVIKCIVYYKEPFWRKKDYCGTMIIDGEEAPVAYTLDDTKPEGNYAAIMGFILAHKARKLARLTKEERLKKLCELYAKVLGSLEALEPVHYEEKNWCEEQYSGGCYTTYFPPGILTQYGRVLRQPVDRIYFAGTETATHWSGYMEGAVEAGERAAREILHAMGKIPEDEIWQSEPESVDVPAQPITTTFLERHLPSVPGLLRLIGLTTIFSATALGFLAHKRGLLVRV
Description: as §1, §2, §3, §4, §5

[4] = tested on: human colon cancer cell line HCT116; test: Cancer cell line study, alamarBlue viability assay; format: cell-based; details: HCT-116, dose required to inhibit cell growth by 50%, 72 hours, read-out: EC50 value for HCT-116 cells
Protocol: The human colon cancer cell line HCT116 was obtained from the American Type Culture Collection (ATCC; CCL-247). The HCT116 cell line was maintained in DMEM GlutaMAX (Invitrogen) supplemented with 10% fetal calf serum. Cells were grown in a humidified incubator at 37 C in 5% CO2. Cells were plated in 96-well plates at a density of 6000 cells/well in 100 μl medium 24 h before addition of drugs. They were then added in concentrations from 100 μM to 0.45 nM (each concentration in triplicate). To do so, a drugs-dilution plate at twice the screening concentrations was prepared. 72 hours later, alamarBlue (Biosource, Invitrogen) viability assay was performed following manufacturer's protocol. In brief, alamarBlue diluted in media was added to cells to have a 5% solution. Cells were incubated at 37 C, 3 hours and at room temperature, 30 min. Cells with no drug and, cells with no drug and lysed with triton X-100 were used as controls. Fluorescence was monitored at 530 nm excitation and 590 nm emission wavelengths. Results were quantified using Infinite F200 Microplate Reader (Tecan Group, Ltd.). EC50 were calculated as the dose of drugs required to inhibit cell growth by 50%, with Origin 7.0 computer program.

[5] = Ki range class, read-out: MAO A (Ki)

Row | Ki [1] | Ki [2, 5] | Ki [3] | Ki ([2]; Ki (IC50), in these assays described herein, read-out: Ki for MAO-A) | MAO A (Ki) ([2]; Ki range class) | EC50 [4] | MAO B (Ki) [3] | Ki value for LSD1 lower than Ki values for MAO-A and MAO-B ([1]; selectivity LSD1 versus MAO-A and MAO-B) | SMILES
1 | 0.001 to 0.1 µM | > 40 µM | 1 to 40 µM |  |  |  |  |  | CN1CCN(CCN[C@@H]2C[C@H]2c2ccccc2)CC1 (relative stereo) [Example 1, N-[2-(4-methylpiperazin-1-yl)ethyl]-N-[(trans)-2-phenylcyclopropyl]amine dihydrochloride salt]
2 | 0.1 to 1 µM | 1 to 40 µM | 0.1 to 1 µM |  |  |  |  |  | c1ccc([C@@H]2C[C@H]2NCCNC2CC2)cc1 (relative stereo) [Example 2, N-cyclopropyl-N′-[(trans)-2-phenylcyclopropyl]ethane-1,2-diamine dihydrochloride salt]
3 | 0.001 to 0.1 µM |  | > 40 µM | ~40 µM | I, II |  |  |  | Cl.Cl.c1ccc([C@@H]2C[C@H]2NCCN2CCNCC2)cc1 (relative stereo) [Example 7, N-[(trans)-2-phenylcyclopropyl]-N-(2-piperazin-1-ylethyl)amine dihydrochloride salt]
4 | 0.001 to 0.1 µM | > 40 µM | 1 to 40 µM |  |  |  |  |  | c1ccc([C@@H]2C[C@H]2NCCN2CCCCC2)cc1 (relative stereo) [Example 9, N-[(trans)-2-phenylcyclopropyl]-N-(2-piperidin-1-ylethyl)amine]
5 | 0.001 to 0.1 µM | > 40 µM | > 40 µM |  |  |  |  | more than 100 fold | Cl.Cl.N[C@@H]1CCN(CCN[C@H]2CC2c2ccccc2)C1 (stereo partly drawn) [Example 4, (3R)-1-(2-{[(trans)-2-phenylcyclopropyl]amino}ethyl)pyrrolidin-3-amine dihydrochloride salt]
6 |  | > 40 µM | > 40 µM |  |  |  |  |  | CN(C)[C@H]1CCN(CCN[C@H]2CC2c2ccccc2)C1 (stereo partly drawn) [Example 5, (3S)—N,N-dimethyl-1-(2-{[(trans)-2-phenylcyclopropyl]amino}ethyl)pyrrolidin-3-amine dihydrochloride salt]
7 |  | 1 to 40 µM | 1 to 40 µM |  |  |  |  |  | CN(C)[C@@H]1CCN(CCN[C@H]2CC2c2ccccc2)C1 (stereo partly drawn) [Example 6, (3R)—N,N-dimethyl-1-(2-{[(trans)-2-phenylcyclopropyl]amino}ethyl)pyrrolidin-3-amine]

The remaining lines, values behind:

Row | SMILES | Ki [1] | Ki [2, 5] | Ki [3] | Ki ([2]; Ki (IC50), in these assays described herein, read-out: Ki for MAO-A) | MAO A (Ki) ([2]; Ki range class) | EC50 [4] | MAO B (Ki) [3] | Ki value for LSD1 lower than Ki values for MAO-A and MAO-B ([1]; selectivity LSD1 versus MAO-A and MAO-B)
8 | CN(C)CCNCCN[C@@H]1C[C@H]1c1ccccc1 (relative stereo) [Example 3, N,N-dimethyl-N′-(2-{[(trans)-2-phenylcyclopropyl]amino}ethyl)ethane-1,2-diamine] | 0.1 to 1 µM | > 40 µM | 1 to 40 µM |  |  |  |  | 
9 | CCN(CC)CCN[C@@H]1C[C@H]1c1ccccc1 (relative stereo) [Example 8, N1,N1-diethyl-N2-((trans)-2-phenylcyclopropyl)ethane-1,2-diamine dihydrochloride salt] | 0.001 to 0.1 µM | 1 to 40 µM | > 40 µM |  |  |  |  | 
10 | CN1CCN(CCN[C@@H]2C[C@H]2c2ccc(OCc3ccccc3)cc2)CC1 (relative stereo) [Example 10, (trans)-2-(4-(benzyloxy)phenyl)-N-(2-(4-methylpiperazin-1-yl)ethyl)cyclopropanamine dihydrochloride salt] | 0.001 to 0.1 µM | 1 to 40 µM | 1 to 40 µM |  |  | ~11 µM |  | 
11 | CN1CCN(CCN[C@@H]2C[C@H]2c2ccc(-c3cccc(C(F)(F)F)c3)cc2)CC1 (relative stereo) [Example 11, (Trans)-N-(2-(4-methylpiperazin-1-yl)ethyl)-2-(3′-(trifluoromethyl)biphenyl-4-yl)cyclopropanamine dihydrochloride] | 0.001 to 0.1 µM | 1 to 40 µM | 1 to 40 µM |  |  |  |  | 
12 | CN1CCN(CCN[C@@H]2C[C@H]2c2ccc(-c3cccc(Cl)c3)cc2)CC1 (relative stereo) [Example 12, (Trans)-2-(3′-chlorobiphenyl-4-yl)-N-(2-(4-methylpiperazin-1-yl)ethyl)cyclopropanamine dihydrochloride] | 0.001 to 0.1 µM |  | 1 to 40 µM |  |  |  |  | 
13 | FC(F)(F)c1cccc(-c2ccc([C@@H]3C[C@H]3NCCNC3CC3)cc2)c1 (relative stereo) [Example 14, N^1-cyclopropyl-N^2-((trans)-2-(3′-(trifluoromethyl)biphenyl-4-yl)cyclopropyl)ethane-1,2-diamine] | 0.1 to 1 µM | 1 to 40 µM |  |  |  |  | II, I II | 
14 | CC(C)CSCCN[C@@H]1C[C@H]1c1ccccc1 (relative stereo) [Example 15, N-(trans)-2-(isobutylthio)-ethyl-2-phenylcyclopropanamine hydrochloride] | 0.1 to 1 µM | 1 to 40 µM | 1 to 40 µM |  |  |  |  | 
15 | CCOCCN[C@@H]1C[C@H]1c1ccccc1 (relative stereo) [Example 16, N-trans-(2-ethoxyethyl)-2-phenylcyclopropanamine hydrochloride] | 0.1 to 1 µM | 1 to 40 µM | 1 to 40 µM |  |  |  |  | 
16 | COCCN[C@@H]1C[C@H]1c1ccccc1 (relative stereo) [Example 17, N-trans-(2-methoxyethyl)-2-phenylcyclopropanamine hydrochloride] | 0.1 to 1 µM | 1 to 40 µM | 1 to 40 µM |  |  |  |  | 
17 | N[C@@H]1CCN(CCN[C@H]2CC2c2ccc(-c3cccc(C(F)(F)F)c3)cc2)C1 (stereo partly drawn) [Example 13, (R)-1-(2-((trans)-2-(3′-(trifluoromethyl)biphenyl-4-yl)cyclopropylamino)ethyl)pyrrolidin-3-amine dihydrochloride] | 0.001 to 0.1 µM | 1 to 40 µM | 1 to 40 µM |  |  |  |  | 
